Measurements: US10183936B2, “Hepatitis B core protein allosteric modulators” (priority 2014, dated 2019)

Key:
[1] = tested on: HBV viral production in AD38 cells; assay: Viral load production in AD38 cells by quantitative PCR of the HBV core sequence in supernatant; format: cell-based; settings: 10 μM compound, 6 days at 37° C., viral load in supernatant compared against DMSO control wells; for activity at 10 µM: Hepatitis B virus, 144 h, read-out: AD38 Viral Load (CpAM/DMSO %) at 10 μM
Procedure, shortened: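 Read-out is TaqMan qPCR of the HBV core region in supernatant, quantitated against standards and referenced to DMSO controls (≥3 per plate). Cells: AD38 at 50,000/well, exposed to compound (added as 10× stock in 10% DMSO) for 6 days at 37° C.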

AD38 cells = assay: Viability of AD38 cells (Promega CellTiter-Glo) at the end of compound treatment; format: cell-based; settings: 10 μM compound, 6 days, luminescence normalized against DMSO control wells (controls being 100%)
Procedure, shortened: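 Luminescent CellTiter-Glo read-out, taken after supernatant was swapped for tetracycline-free 2% FBS medium with 1% DMSO, gave percent viability relative to DMSO controls set at 100%. Cells were plated at 50,000/well and exposed to compound, added as a 10× stock in 10% DMSO, for 6 days at 37° C.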

Compound	activity at 10 µM [1] [%]	AD38 Viability Normalized Result (CPAM/DMSO %) at 10 μM (AD38 cells) [%]	AD38 Viral Load (CpAM/DMSO %) at 10 μM [1] [%]
O=C(NCCc1ccc(-n2nccn2)cc1)c1ccc2c(c1)NC(=O)c1ccccc1S2 [Compound 1256]	1	102	
O=C(Nc1cccc(-c2cccnc2)c1)c1ccc2c(c1)NC(=O)c1ccccc1S2(=O)=O [Compound 1629]	3	95	
O=C(Nc1ccncc1)c1ccc2c(c1)NC(=O)c1ccccc1[S+]2[O-] (centres unmarked) [Compound 1382]	47	117	
O=C1Nc2cc(S(=O)(=O)N3CCCCC3)ccc2Sc2ccccc21 [Compound 1399]	105	92	
O=C(Nc1cccc(-c2cncs2)c1)c1ccc2c(c1)NC(=O)c1cc(F)ccc1S2 [Compound 1441]	28	90	
NC(=O)c1ccc2c(c1)NC(=O)c1ccccc1[S+]2[O-] (centres unmarked) [Compound 1575]	90	108	
O=C(NCCc1ccc(-c2ccccc2)cc1)c1ccc2c(c1)NC(=O)c1ccccc1S2(=O)=O [Compound 1618]	0	44	
O=C1Nc2cc(COCCc3ccccc3)ccc2Sc2ccccc21 [Compound 1501, 8-(phenethoxymethyl) dibenzo [b,f] [1,4] thiazepin-11(10H)-one]	37	71	
O=C(NCc1cccnc1)c1ccc2c(c1)NC(=O)c1ccc(F)cc1S2 [Compound 1365]	2	105	
CN(C)C(=O)c1ccc2c(c1)Sc1ccc(C(=O)NCCC3CCCCC3)cc1NC2=O [Compound 1278, N-(2-cyclohexylethyl)-N^3,N^3-dimethyl-11-oxo-10, 11-dihydrodibenzo [b,f] [1,4] thiazepine-3,8-dicarboxamide]		88	3
O=C(NCc1cncnc1)c1ccc2c(c1)NC(=O)c1ccccc1O2 [Compound 1595]	3	108	
CCOc1ccccc1CCNC(=O)c1ccc2c(c1)NC(=O)c1ccccc1S2 [Compound 1156]	16	106	
O=C(NCc1cccnc1)c1ccc2c(c1)NC(=O)c1cc(F)ccc1S2 [Compound 1364]	1	102	
O=C(NCc1ccc(OC(F)(F)F)cc1)c1ccc2c(c1)NC(=O)c1ccccc1S2 [Compound 1162]	61	99	
COc1cccc(-c2cccc(NC(=O)c3ccc4c(c3)NC(=O)c3cc(F)ccc3S4)c2)c1 [Compound 1452]	15	62	
O=C(NCc1cccc(C(F)(F)F)c1)c1ccc2c(c1)NC(=O)c1ccccc1S2 [Compound 1166]	10	119	
COc1ccccc1CCNC(=O)c1ccc2c(c1)NC(=O)c1ccccc1S2 [Compound 1127]	22	94	
O=C(NCc1cncs1)c1ccc2c(c1)NC(=O)c1ccc(F)cc1S2 [Compound 1356]	3	101	
O=C(NCCc1ccc(-c2ccccc2)cc1)c1ccc2c(c1)NC(=O)c1cc(F)ccc1S2 [Compound 1370]	5	94	
O=C(NCCc1cc[nH]n1)c1ccc2c(c1)NC(=O)c1ccccc1S2 [Compound 1270]	1	94	
O=C(NC[C@H](C(=O)O)c1ccccc1)c1ccc2c(c1)NC(=O)c1ccccc1S2 [Compound 1268, (R)-3-(11-oxo-10, 11-dihydrodibenzo [b,f] [1,4]thiazepine-8-carboxamido)-2-phenylpropanoic acid]	77	106	
O=C(Nc1cccc(-c2cncnc2)c1)c1ccc2c(c1)NC(=O)c1cc(F)ccc1S2 [Compound 1440]	71	91	
O=C1Nc2c(cc(F)c(C(=O)NCc3cnco3)c2F)Sc2ccccc21 [Compound 1530]	70	93	
O=C(Nc1ccc2ncsc2c1)c1ccc2c(c1)NC(=O)c1cc(F)ccc1S2 [Compound 1325]	26	90	
O=C(NCc1cnco1)c1ccc2c(c1)NC(=O)c1ccccc1S2(=O)=O [Compound 1456]	15	101	
O=C(NCCc1cccnc1)c1ccc2c(c1)NC(=O)c1cccc(F)c1S2 [Compound 1391]	2	71	

Compound	activity at 10 µM [1] [%]	AD38 Viability Normalized Result (CPAM/DMSO %) at 10 μM (AD38 cells) [%]	AD38 Viral Load (CpAM/DMSO %) at 10 μM [1] [%]
Cc1c(C(=O)NCc2cncnc2)ccc2c1NC(=O)c1ccccc1S2 [Compound 1478]	2	94	
O=C(NCCc1cncs1)c1cc2c(cc1F)Sc1ccccc1C(=O)N2 [Compound 1558]	51	88	
CN(C)S(=O)(=O)c1ccc(CCNC(=O)c2cc3c(cc2F)Sc2ccccc2C(=O)N3)cc1 [Compound 1507]	11	96	
O=C(NCc1cnco1)c1ccc2c(c1)NC(=O)c1cccc(F)c1S2 [Compound 1408]	17	94	
O=C(NCCc1cnco1)c1ccc2c(c1)NC(=O)c1ccc(F)cc1S2 [Compound 1402]	12	81	
O=C(NCC1CCOCC1)c1ccc2c(c1)NC(=O)c1ccccc1S2 [Compound 1607]	14	93	
CN(C)S(=O)(=O)c1ccc(CCNC(=O)c2ccc3c(c2)NC(=O)c2ccccc2[S+]3[O-])cc1 (centres unmarked) [Compound 1486]	53	94	
O=C(Nc1ccc(F)cn1)c1ccc2c(c1)NC(=O)c1cc(F)ccc1S2 [Compound 1336]	70	90	
O=C(NCCC1CCCCC1)c1ccc2c(c1)NC(=O)c1ccccc1C2 [Compound 1198]	3	60	
O=C(NCc1ccccc1O)c1ccc2c(c1)NC(=O)c1ccccc1S2 [Compound 1219]	5	100	
O=C(NCc1cncnc1)c1ccc2c(c1)NC(=O)c1cccc(F)c1S2 [Compound 1390]	2	92	
O=C(NCc1cncs1)c1ccc2c(c1)NC(=O)c1ccccc1O2 [Compound 1593]	3	133	
O=C(NCCC1CCCO1)c1ccc2c(c1)NC(=O)c1ccccc1S2 (centres unmarked) [Compound 1209]	1	102	
O=C(Nc1cccc(-c2ccccc2)c1)c1cc2c(cc1F)Sc1ccccc1C(=O)N2 [Compound 1509]	15	29	
O=C(NCCc1cccnc1)c1ccc2c(c1)NC(=O)c1ccc(F)cc1S2 [Compound 1377]	5	65	
O=C(NCc1cncnc1)c1ccc2c(c1)NC(=O)c1ccccc1S2 [Compound 1233]	1	93	
O=C(NCCc1ccccn1)c1ccc2c(c1)NC(=O)c1c(F)cccc1S2 [Compound 1471]	16	97	
Cc1nnc(CCNC(=O)c2ccc3c(c2)NC(=O)c2ccccc2S3)s1 [Compound 1567]	1	109	
COC(C)(C)CCNC(=O)c1ccc2c(c1)NC(=O)c1ccccc1S2 [Compound 1238]	26	104	
CN(C)c1ccccc1CNC(=O)c1ccc2c(c1)NC(=O)c1ccccc1S2 [Compound 1227]	10	92	
O=C(NCCO)c1ccc2c(c1)NC(=O)c1ccccc1S2 [Compound 1172]	51	107	
O=C(Nc1nc2ccc(F)cc2s1)c1ccc2c(c1)NC(=O)c1cc(F)ccc1S2 [Compound 1332]	70	103	
CN1C(=O)c2ccccc2Sc2ccc(C(=O)NCCc3cccc(O)c3)cc21 [Compound 1133]	94	99	
O=C(NCc1cccnc1)c1ccc2c(c1)NC(=O)c1c(F)cccc1S2 [Compound 1490]	7	79	
Cc1c(C(=O)NCCc2cncnc2)ccc2c1NC(=O)c1ccccc1S2 [Compound 1529]	12	111	
O=C1Nc2cc(S(=O)(=O)Nc3cncnc3)ccc2[S+]([O-])c2ccccc21 (centres unmarked) [Compound 1506]	72	85	
